# Values joined by “and” are separate entries in the source; they are usually repeats but may differ in a detail not shown here. Equal entries are not always repeated. Where two headings read alike, the source gives them in different places.
# Molecular target: influenza virus NA (Influenza A virus, UniProt Q6DPL2)
# Assay type: biochemical
# Conditions: single replicates (3)
# influenza virus NA, sequence (Q6DPL2 whole entry, looked up): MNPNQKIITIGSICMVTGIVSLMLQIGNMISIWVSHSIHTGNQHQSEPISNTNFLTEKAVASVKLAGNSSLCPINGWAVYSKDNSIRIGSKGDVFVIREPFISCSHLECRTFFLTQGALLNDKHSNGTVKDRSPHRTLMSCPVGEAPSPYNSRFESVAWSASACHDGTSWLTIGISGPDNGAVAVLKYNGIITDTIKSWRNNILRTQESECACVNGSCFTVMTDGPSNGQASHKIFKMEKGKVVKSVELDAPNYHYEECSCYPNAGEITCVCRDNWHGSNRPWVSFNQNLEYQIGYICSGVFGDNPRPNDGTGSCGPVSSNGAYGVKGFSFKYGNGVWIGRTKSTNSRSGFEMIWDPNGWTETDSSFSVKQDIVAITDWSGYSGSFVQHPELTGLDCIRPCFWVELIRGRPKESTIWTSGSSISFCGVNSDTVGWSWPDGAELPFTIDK
smiles,measurement,setting,value
"CC(=O)N[C@H]1[C@H]([C@H](O)[C@H](O)CO)OC(C(=O)O)=C[C@@H]1N=C(N)N [Zanamivir, zanamivir]",inhibition rates,first line per compound,100.00 and 99.40 and 99.96
same,inhibition rates,"second line per compound, presumably 5-fold diluted (Sheet1)",44.04 and 41.05
same,inhibition rates,third line per compound,17.05 and 17.04 and 19.04

# — article PMC4980783 (Chemistry Central Journal, 2016)
